Type in all cases: cell-based
One data set has as its system colon HCT-116. As to the kind of experiment: COMPARE screening (NCI human cancer cell line screen), cytotoxicity GI50. The method, then:
(§1) Selected compounds were tested for antiproliferative activity in the National Cancer Institute's developmental therapeutics assay 60 cell line screen (NCI60). The cells were incubated with the tested compounds at 100, 10, 1, 0.1, and 0.01 μM concentrations for 48 h before treatment with sulforhodamine B dye. Optical densities were recorded, and their ratios relative to that of the control were plotted as percentage growth against the log 10 of the tested compound concentrations.

A further data set deals with melanoma UACC-62. The data set is described as above. The protocol:
as §1

The test system of the next data set is renal SN12C. The data set is described as above. The protocol: as §1
The test system of a further data set is lung HOP-62. The data set is described as above. The protocol:
as §1

A further data set deals with prostate DU-145. The description is as above. The protocol: as §1
The test system of a further data set is CNS SF-539. Described as above. The protocol: as §1
The subject of the next data set is ovarian OVCAR-3. Described as above. The method, then:
as §1

Another data set relates to breast MDA-MB-435. The data set is described as above.
The subject of data set [1] is all human cancer cell lines successfully tested. As to the kind of experiment: NCI screen mean graph midpoint (MGM) for growth inhibition. The protocol:
COMPARE screening. The compounds described herein were examined for antiproliferative activity against the human cancer cell lines in the National Cancer Institute screen (COMPARE screening), in which the activity of each compound was evaluated with approximately 55 different cancer cell lines of diverse tumor origins. […] Therefore, the MGM value represents an overall assessment of toxicity of the compound across numerous cell lines.
as §1
The cytotoxicities of the compounds to cultured cancer cells were measured in the National Cancer Institute's 60 cell line assay (a.k.a. NCI-60).

[2] abbreviates: Table 1, average GI50 of all cell lines tested (approximately 55), test range 10^−8 to 10^−4 molar.
Setting [3] is: Homo sapiens, UACC-62, read-out: cytotoxicity (GI50) melanoma UACC-62.
[4] abbreviates: Homo sapiens, SN12C, read-out: cytotoxicity (GI50) renal SN12C.
The mark [5] stands for this setting: Homo sapiens, HOP-62, read-out: cytotoxicity (GI50) lung HOP-62.
Where [6] appears, read: Homo sapiens, DU-145, read-out: cytotoxicity (GI50) prostate DU-145.
Where [7] appears, read: Homo sapiens, CNSSF-539, read-out: cytotoxicity (GI50) CNS SF-539.
Setting [8] is: Homo sapiens, OVCAR-3, read-out: cytotoxicity (GI50) ovarian OVCAR-3.
Where [9] appears, read: Homo sapiens, MDA-MB-435, read-out: cytotoxicity (GI50) breast MDA-MB-435.
Where [10] appears, read: all human cancer cell lines successfully tested.

Where two headings read alike, the source gives them in different places. Bounds are passed on as bounds.

A word on the GI50: it is the concentration giving 50% growth inhibition.

In the case of `O=C1c2ccccc2-c2oc(=O)c3cc4c(cc3c21)OCO4` [Compound 4b], the GI50 with colon HCT-116 was greater than 100 µM; with melanoma UACC-62, greater than 100 µM; in the data set with renal SN12C it was greater than 100 µM; in the data set with lung HOP-62, 53.7 µM; in the data set on prostate DU-145, greater than 100 µM; in the data set on CNS SF-539, greater than 100 µM. Besides, the GI50 with ovarian OVCAR-3 and with breast MDA-MB-435 was greater than 100 µM each time. Also, the MGM (mean GI50 across cell lines) in data set [1] (setting [2]) turned out to be 57.5 µM.
With `O=C1c2ccccc2-c2oc(=O)c3cc([N+](=O)[O-])ccc3c21` [Compound 4c, 3-nitrobenz[d]indeno[1,2-b]pyran-5,11-dione], the GI50 is 47.9 µM in the data set on colon HCT-116 (Homo sapiens, HCT-116, read-out: cytotoxicity (GI50) colon HCT-116); 25.1 µM with melanoma UACC-62 (setting [3]); greater than 100 µM in the data set on renal SN12C (setting [4]); 18.2 µM with lung HOP-62 (setting [5]); greater than 100 µM in the data set on prostate DU-145 (setting [6]); greater than 100 µM with CNS SF-539 (setting [7]). In addition, the GI50 with ovarian OVCAR-3 (setting [8]) and with breast MDA-MB-435 (setting [9]) was greater than 100 µM each time. The same molecule yielded an MGM (mean GI50 across cell lines) in data set [1] (setting [2]) of 64.6 µM.
For the molecule `CC(C)(C)OC(=O)NCCCCCCCCn1c2c(c3ccccc3c1=O)C(=O)c1ccccc1-2` [Compound 5ag, 6-(8′-tert-BOC-Aminooctyl)-5,6-dihydro-5,11-dioxo-11H-indeno[1,2-c]isoquinoline], the GI50 in the data set on colon HCT-116 was 25.7 µM; in the data set with melanoma UACC-62 it was 15.5 µM; in the data set with renal SN12C, greater than 50.1 µM; with lung HOP-62, 10.7 µM; in the data set with prostate DU-145 it was greater than 50.1 µM; with CNS SF-539, 8.71 µM. Further, in the data set with breast MDA-MB-435, the GI50 was greater than 50.1 µM. Further, the MGM (mean GI50 across cell lines) in [1] (setting [2]) is given as 19.9 µM.
As for `CC(C)(C)OC(=O)NCCCCCCCCCn1c2c(c3ccccc3c1=O)C(=O)c1ccccc1-2` [Compound 5ah, 6-(9′-tert-BOC-Aminononyl)-5,6-dihydro-5,11-dioxo-11H-indeno[1,2-c]isoquinoline], the GI50 in the data set with melanoma UACC-62 is 17.4 µM; with renal SN12C, 77.6 µM; with lung HOP-62, 24.5 µM; in the data set on prostate DU-145 it was greater than 100 µM; with CNS SF-539, 17.8 µM; with ovarian OVCAR-3, 28.8 µM. In addition, the GI50 in the data set on breast MDA-MB-435 was greater than 100 µM. Moreover, the MGM (mean GI50 across cell lines) in data set [1] (setting [2]) was determined as 50.1 µM.
With `O=C1c2ccccc2-c2c1c1ccccc1c(=O)n2Cc1ccccn1` [Compound 5aw, 5,6-Dihydro-5,11-dioxo-6-(2-pyridylmethyl)-11H-indeno[1,2-c]isoquinoline], the GI50 in the data set with melanoma UACC-62 (setting [3]) stood at 10.7 µM; in the data set on renal SN12C (setting [4]), 28.2 µM; in the data set with lung HOP-62 (setting [5]), 11.2 µM; in the data set with prostate DU-145 (setting [6]), 13.5 µM; in the data set on CNS SF-539 (setting [7]), 12.3 µM; in the data set on ovarian OVCAR-3 (setting [8]), 13.8 µM. Further, in the data set with breast MDA-MB-435 (setting [9]), the GI50 came out at 3.09 µM. Moreover, the MGM (mean GI50 across cell lines) in data set [1] (setting [2]) worked out at 15.1 µM.
For the molecule `Cl.O=C1c2ccccc2-c2c1c1ccccc1c(=O)n2CCc1ccccn1` [Compound 5ay, 5,6-Dihydro-5,11-dioxo-6-(2-pyridylethyl)-11H-indeno[1,2-c]isoquinoline Hydrochloride], the 50% growth inhibitory concentration (GI50) in the data set on melanoma UACC-62 (setting [3]) was 27.5 µM; in the data set with renal SN12C (setting [4]), 77.6 µM; in the data set on lung HOP-62 (setting [5]), 21.4 µM; in the data set on prostate DU-145 (setting [6]), 74.1 µM; in the data set on CNS SF-539 (setting [7]), 17.4 µM; in the data set with ovarian OVCAR-3 (setting [8]) it was greater than 100 µM. In addition, the GI50 in the data set with breast MDA-MB-435 (setting [9]) was determined as 5.13 µM. The molecule further gave an MGM (mean GI50 across cell lines) in data set [1] (setting [2]) of 53.7 µM.
On to `COc1ccc2c(c1)C(=O)c1c-2n(CCCI)c(=O)c2cc([N+](=O)[O-])ccc12` [Compound 5bd], for which the GI50 with colon HCT-116 turned out to be 0.046 µM; with melanoma UACC-62, 0.148 µM; in the data set with renal SN12C it was 0.309 µM; with prostate DU-145, 0.034 µM; in the data set with CNS SF-539, 0.058 µM; with ovarian OVCAR-3, 3.02 µM. Besides, it took 1.48 µM to inhibit growth in the data set on breast MDA-MB-435 by half (GI50). Moreover, the “MGM (mean graph midpoint for growth inhibition)” value in data set [1] (setting [2]) turned out to be 0.328 ± 0.046 µM.
Turning to `COc1ccc2c(c1)C(=O)c1c-2n(CCCN)c(=O)c2ccccc12.Cl` [Compound 5bg], the GI50 is less than 0.01 µM in the data set with colon HCT-116; less than 0.01 µM in the data set on renal SN12C; less than 0.01 µM with lung HOP-62; 0.014 µM in the data set with prostate DU-145; 0.038 µM in the data set with CNS SF-539; 0.028 µM in the data set with ovarian OVCAR-3. The molecule also gave a GI50 in the data set with breast MDA-MB-435 of 0.059 µM. Moreover, the “MGM (mean graph midpoint for growth inhibition)” value in [1] (setting [2]) came out at 0.048 ± 0.024 µM.
For `O=C1c2ccccc2-c2c1c1ccc([N+](=O)[O-])cc1c(=O)n2CCCN1CCOCC1` [Compound 5bi], the GI50 amounted to 0.038 µM in the data set on colon HCT-116; 0.38 µM in the data set on melanoma UACC-62; 0.309 µM in the data set with renal SN12C; 0.021 µM with lung HOP-62; 0.085 µM in the data set on prostate DU-145; 0.095 µM in the data set on CNS SF-539. The molecule further had a GI50 in the data set on breast MDA-MB-435 of 1.23 µM. For the same molecule, the “MGM (mean graph midpoint for growth inhibition)” value in [1] (setting [2]) is 0.632 ± 0.029 µM.
Take `COc1ccc2c(c1)C(=O)c1c-2n(CCCNCCO)c(=O)c2cc([N+](=O)[O-])ccc12.Cl` [Compound 5bm]: the 50% growth inhibitory concentration (GI50) is less than 0.01 µM in the data set with melanoma UACC-62; 0.012 µM in the data set on renal SN12C; less than 0.01 µM with lung HOP-62; less than 0.03 µM with prostate DU-145; less than 0.01 µM in the data set on CNS SF-539; less than 0.01 µM with ovarian OVCAR-3. For the same molecule, the GI50 in the data set with breast MDA-MB-435 was less than 0.01 µM. The MGM (mean GI50 across cell lines) in data set [1] (setting [2]) is 0.016 µM.
`Cl.O=C1c2ccccc2-c2c1c1ccccc1c(=O)n2CCCNCCO` [Compound 5bo]: the GI50 in the data set with melanoma UACC-62 amounted to 0.178 µM; in the data set on renal SN12C, 0.269 µM; in the data set on lung HOP-62 it was 0.195 µM; with prostate DU-145, 0.174 µM; in the data set on CNS SF-539, 0.55 µM; with ovarian OVCAR-3, 0.55 µM. In the data set with breast MDA-MB-435, this molecule came in with a 50% growth inhibitory concentration (GI50) of 0.49 µM. In [1] (setting [2]), the MGM (mean GI50 across cell lines) was 0.339 µM.
Take `COc1cc2c3c(n(CCCn4ccnc4)c(=O)c2cc1OC)-c1cc2c(cc1C3=O)OCO2.Cl` [Compound 5l, Hydrochloride]: the GI50 in the data set with colon HCT-116 was less than 0.01 µM; in the data set with melanoma UACC-62 it was less than 0.01 µM; in the data set on renal SN12C it was less than 0.01 µM; in the data set with lung HOP-62, less than 0.01 µM; with prostate DU-145, less than 0.01 µM; in the data set with CNS SF-539 it was 0.037 µM. Moreover, the GI50 with ovarian OVCAR-3 (Table 1, concentration corresponding to 50% growth inhibition, read-out: cytotoxicity (GI50) ovarian OVCAR-3) was found to be 0.085 µM; in the data set on breast MDA-MB-435 it was 0.02 µM.
Turning to `COc1cc2c3c(n(CCCNCCCNCCCn4c5c(c6ccccc6c4=O)C(=O)c4ccccc4-5)c(=O)c2cc1OC)-c1cc2c(cc1C3=O)OCO2.O=C(O)C(F)(F)F.O=C(O)C(F)(F)F` [Compound 17a, 1,3-{6-(3-Amino-1-propyl)-5,6-dihydro-2,3-dimethoxy-8,9-methylenedioxy-5,1-dioxo-11H-indeno[1,2-c]isoquinoline}-{5′,6′-Dihydro-6′-(3′-amino-1′-propyl)-5′,11′-dioxo-11′H-indeno[1,2-c]isoquinoline}propane Bis(trifluoroacetate)], the GI50 in the data set on colon HCT-116 (colon HCT-116, concentration corresponding to 50% growth inhibition, read-out: cytotoxicity (GI50 in μM) colon HCT-116) is 0.022 µM; with lung HOP-62 (lung HOP-62, concentration corresponding to 50% growth inhibition, read-out: cytotoxicity (GI50 in μM) lung HOP-62), 0.191 µM; in the data set with prostate DU-145 (prostate DU-145, concentration corresponding to 50% growth inhibition, read-out: cytotoxicity (GI50 in μM) prostate DU-145), 0.01 µM; in the data set on CNS SF-539 (CNS SF-539, concentration corresponding to 50% growth inhibition, read-out: cytotoxicity (GI50 in μM) CNS SF-539), less than 0.01 µM; in the data set with ovarian OVCAR-3 (ovarian OVCAR-3, concentration corresponding to 50% growth inhibition, read-out: cytotoxicity (GI50 in μM) ovarian OVCAR-3), less than 0.01 µM; in the data set with breast MDA-MB-435 (breast MDA-MB-435, concentration corresponding to 50% growth inhibition, read-out: cytotoxicity (GI50 in μM) breast MDA-MB-435), 0.155 µM. Moreover, in data set [1] (setting [10]), the “MGM (mean graph midpoint for growth inhibition)” value was 0.046 ± 0.010 µM.
“Bis-1,2-{(5,6-dihydro-5,11-diketo-11H-indeno[1,2-c]isoquinoline)-6-ethylamino-ethylamino}ethane Tetra(trifluoroacetate) [Compound 14j]”: the concentration for 50% growth inhibition (GI50) in the data set with colon HCT-116 worked out at 0.2 µM; with lung HOP-62, 0.977 µM; in the data set on prostate DU-145, 0.085 µM; with CNS SF-539, 0.012 µM; with ovarian OVCAR-3, 0.032 µM; with breast MDA-MB-435, 0.126 µM. For the same molecule, in [1] (setting [10]), the “MGM (mean graph midpoint for growth inhibition)” value was 0.262 ± 0.100 µM.

The values are drawn from patent US9796753B2, “N-substituted indenoisoquinolines and syntheses thereof” (Purdue Research Foundation, priority 2005, dated 2017).
